{"source": "paper PMC9268013", "about": "“Design, Synthesis, and Biological Evaluation of N14-Amino Acid-Substituted Tetrandrine Derivatives as Potential Antitumor Agents against Human Colorectal Cancer” (Molecules, 2022)", "key": {"[1]": {"test_system": "human colon cancer cells (HCT-15)", "experiment": "MTT antiproliferative assay, HCT-15", "format": "cell-based", "description": "(§1) Human lung cancer cell (A549,), human umbilical vein endothelial cells (HUVECs,), human colon cancer cell lines (HCT-15), human breast cancer cells (MCF-7), human liver cancer cells (HepG2), human pancreatic cancer cells (BxPC-3), and human hepatic cell line (L-02) were obtained from the Sichuan University. A549, HUVECs, and L-02 were cultured in DMEM medium (high glucose, HyClone, GE Healthcare, Sydney, Australia). Human colon cancer cell lines HCT-15, human pancreatic cancer cells […] BxPC-3 were cultured in RPMI-1640. Human breast cancer cells MCF-7 and human liver cancer cells HepG2 were cultured in MEM medium. All the mediums, including 10% fetal bovine serum (FBS, HyClone, GE Healthcare, Sydney, Australia) and 1% ampicillin/streptomycin, were used to culture the above cells at 37 °C in a humidified atmosphere (5% CO2 and 95% air).\n(§2) The antiproliferative activity of the title compounds was determined using the MTT (3-(4,5-dimethylthiazol-2-yl)-2,5-diphenyltetrazolium bromide, Sigma-Aldrich, Saint Louis, MO, USA) assay on different cells. Cells lines were seeded into 96-well plates at a density of 2000 to 6000 cells/well. DMSO was used to dissolve the test compounds, and TET was used as a positive control. After 24 h, the test compounds were added at different concentrations (0.625, 1.25, 2.5, 5, 10, and 20 μM) and incubated at 37 °C for 72 h. MTT was added to each well at a final concentration of 0.5 mg/mL and incubated at 37 °C for 4 h. Then, 150 μL of DMSO was added to each well to dissolve the formazan crystals. The absorbance was measured at 570 nm by a microplate reader (ELX800UV, Bio-Tek, Windoski, VT, USA). All measurements were repeated at least three times under the same conditions. Graphpad Prism 8.0 was used to calculate the IC50 values."}, "[2]": {"test_system": "human liver cancer cells (HepG2)", "experiment": "MTT antiproliferative assay, HepG2", "format": "cell-based", "description": "as §1, §2"}, "[3]": {"test_system": "human umbilical vein endothelial cells (HUVEC)", "experiment": "MTT antiproliferative assay, HUVEC", "format": "cell-based", "settings": "72 h", "description": "as §1, §2"}, "[4]": {"test_system": "HCT-15 cells", "experiment": "Live/dead FDA/PI double staining, HCT-15", "format": "cell-based", "settings": "Homo sapiens, HCT-15, FDA/PI, 48 h, read-out: Viable cells retained", "description": "(§3) HCT-15 or HUVEC cells were cultured in six-well plates for 24 h. The cells were washed with PBS and incubated with medium containing 0.625, 1.25, 2.5, 5, and 10 μM of 16 for 48 h. Afterwards, the medium was replaced, and the cells were washed twice with PBS, resuspended in the solution containing 100 μL FDA (0.02 mg/mL, Sigma, St. Louis, MO, USA) and 30 μL PI (0.02 mg/mL, Sigma, St. Louis, MO, USA), and treated in the dark at room temperature for 10 min. The cells were imaged with a fluorescence microscope (Nikon ECLIPSE TE2000-U, Tokyo, Japan)."}, "[5]": {"test_system": "HCT-15 cells", "experiment": "Cell cycle analysis by flow cytometry", "format": "cell-based, human", "settings": "HCT-15, 1.25, 2.5, and 5 μM, 24 h", "description": "HCT-15 cells were cultured in six-well plates overnight at 37 °C. The cells were treated with 1.25, 2.5, 5 μM of 16 or DMSO and incubated for 24 h. Afterwards, the cells were harvested, and 70% ice cold ethanol was used to fix cells at 4 °C. Subsequently, the cells were centrifuged to remove the fixative solution, washed twice with PBS, and exposed to 500 μL of PI/RNase working solution (Keygen Biotech, Nanjing, China) at 4 °C for 30 min in the dark. The cell cycle distribution was analyzed by flow cytometry."}, "[6]": {"test_system": "Beclin-1", "experiment": "Western blot, Beclin-1 in HCT-15 cells", "format": "cell-based, human", "settings": "HCT-15, increasing concentration, p < 0.01", "description": "(§4) The protein levels in HCT-15 cells were evaluated via Western blot analysis. The cells were cultured in dishes (10^7 cells per dish) and incubated overnight at 37 °C, 0.625, 1.25, 2.5, and 5 μM of 16 was added in triplicate after 24 h of incubation. Then, the cells were harvested and lysed in Laemmli buffer (glycerol, 1M TRIS pH 6.8, 1% SDS, MQ H2O and 20% β-mercaptoethanol). The samples were boiled for 5 min at 95 °C, and the protein content was determined using a BCA kit. Equal amounts of 30 μg of sample were placed on a Tris/HCl gel and separated by SDS-PAGE electrophoresis. Then, the samples were transferred to a PVDF membrane (Milibo, Co., Ltd., Billyka, MA, USA) and blocked with 5% skimmed milk powder for 2 h. Diluted primary antibodies Bcl-2 (1:3000), Bax (1:10,000), caspase-3 (l:2000), p62 (1:1000), Beclin1 (1:1000), LC3 (1:2000), and β-actin (1:1000) were incubated overnight at 4 °C, followed by a horseradish peroxidase-conjugated goat anti-rabbit IgG secondary antibody (ProteinTech, China) for 2 h at room temperature. Then, immunoreactivity was developed with diaminobenzidine solution, and scanned and recorded by a gel imaging system (G:BOX Chemi XL1.4, Frederick, MD, USA)."}, "[7]": {"test_system": "microtubule-associated protein 1 light chain 3 (LC3)", "experiment": "Western blot, LC3-II/LC3-I in HCT-15 cells", "format": "cell-based, human", "settings": "HCT-15, 0.625, 1.25, 2.5, and 5 μM, p < 0.05", "description": "as §4"}, "[8]": {"experiment": "Live/dead FDA/PI double staining, HUVEC", "format": "cell-based", "settings": "human, HUVEC cells, read-out: Viable cell percentage", "description": "as §3"}, "[9]": {"test_system": "HUVECs", "experiment": "Wound healing (migration) assay, HUVEC", "format": "cell-based, human", "settings": "10 μM, 24 h, control 85%", "description": "HCT-15 cells or HUVECs were seeded in six-well culture plates and allowed to grow to 80–90% confluence. Subsequently, a cell-free line was manually created by scratching the confluent cell monolayers with a 200 μL sterile pipette tip, and the detached cells were washed with PBS. The cells were then incubated with 10% FBS and different concentrations of 16 (0.625, 1.25, 2.5, 5, and 10 μM). Then, 24 h later, images of the same location were obtained using a microscope (Nikon ECLIPSE TE2000-U, Tokyo, Japan). Each experiment was carried out at least three times."}, "[10]": {"test_system": "HUVECs", "experiment": "Tube formation assay on Matrigel", "format": "cell-based, human", "settings": "HUVEC on Matrigel, 5 μM, 8 h", "description": "Briefly, a 96-well plate was pre-coated with 50 μL Matrigel per well and incubated at 37 °C for 30 min. Then, 100 μL of HUVECs suspension (2 × 10^4) were added to each well. The cells were cultured with 1.25, 2.5, and 5 μM of 16 for 8 h. Subsequently, the tube formation was observed, randomly selected, and recorded by an inverted microscope."}}}
{"smiles": "COc1cc(NC(=O)[C@@H]2CCCN2)c2cc1Oc1ccc(cc1)C[C@H]1c3cc(c(OC)cc3CCN1C)Oc1c(OC)c(OC)cc3c1[C@H](C2)N(C)CC3", "note": "[Compound 16, 14-N-(L-proline)-tetrandrine]", "values": [{"measurement": "Improvement of antiproliferative activity compared with TET", "setting": "[1]; HCT-15 cells, vs TET (IC50 = 6.12 μM)", "value": "higher than 10 fold"}, {"measurement": "IC50", "setting": "[1]; Homo sapiens, MTT, 72 h, HCT-15", "value": "0.57 ± 0.03", "unit": "µM"}, {"measurement": "IC50", "setting": "[2]; 72 h", "value": "1.05 ± 0.03", "unit": "µM"}, {"measurement": "IC50", "setting": "[2]; Homo sapiens, HepG2, 72 h", "value": "< 1.5", "unit": "µM"}, {"measurement": "IC50", "setting": "[3]", "value": "1.48 ± 0.01", "unit": "µM"}, {"measurement": "viability at 5 µM", "setting": "[4]; 5 μM", "value": 18.3, "unit": "%"}, {"measurement": "viability at 10 µM", "setting": "[4]; 10 μM", "value": 17.6, "unit": "%"}, {"measurement": "Effect on cell cycle redistribution", "setting": "[5]", "value": "no significant influence on cell cycle redistribution"}, {"measurement": "Beclin-1 level", "setting": "[6]", "value": "markedly enhanced"}, {"measurement": "Ratio of LC3-II to LC3-I", "setting": "[7]", "value": "increased"}, {"measurement": "viability at 48 h, 5 µM", "setting": "[8]; 5 μM", "value": 1.9, "unit": "%"}, {"measurement": "viability at 48 h, 10 µM", "setting": "[8]; 10 μM", "value": 0.1, "unit": "%"}, {"measurement": "Migration rate", "setting": "[9]", "value": 10.0, "unit": "%"}, {"measurement": "Tube formation", "setting": "[10]", "value": "almost no tube structure"}]}
